Results on six compounds are retold here after US4053580A, “Microsealed pharmaceutical delivery device” (G. D. Searle & Co., priority 1975, dated 1977).

Common to all, as to format: physicochemical
Series [1] in a line: Release of pharmaceutical from microsealed silicone delivery device (release rate and kinetics). The conditions noted are these: device: 2 parts drug in 2 parts 40% PEG (MW 380-420) in water, Silastic 382 matrix, Silastic tubing. The text has this:
amount of pharmaceutical released decreases with time and Q - t
Those skilled in the pharmaceutical arts will know how to determine toxic levels of a given pharmaceutical, and the minimum effective dose. With this information a proper dosage form can be prepared by measuring the in vivo rate of elution of a given pharmaceutical by standard analytic tecniques e.g. spectroscopic or radio immunoassay analysis. In vitro diffusion of the pharmaceutical from a delivery device may be determined by the methods of Chien and Lambert, J. Pharm. Sci., 63, 365 (1974) or by methods described in U.S. Pat. No. 3,710,795.
A biologically acceptable silicone polymer matrix containing a pharmaceutical in a hydrophilic solvent system is prepared as follows: […] of ethynodiol diacetate at 37° C. by vigorous agitation for 10 minutes. To this mixture is added 6 parts of liquid silicone polymer of the formula [drawing 5] sold as Silastic® Medical Grade 382 Elastomer by Dow-Corning and this combination is stirred with a mechanical mixer at 1000 rpm for 28 minutes. 0.015 Parts of a cross-linking agent (stannous octanoate is added to the combination and stirring is continued for 2 minutes. The combination is placed in a silicone rubber tubing (I.D. 3.18mm, 0.D. 6.35mm sold by Dow-Corning as Medical Grade Silastic Tubing No. 601-365). This tubing is a silicone polymer of the formula The system is allowed to cross-link for 1 hour and then the tubing is sectioned to provide pharmaceutical delivery devices with the desired amount of pharmaceutical. The ends of the sections may be sealed or left open and additional openings may be made in the walls of the tubing to facilitate higher but still constant rates of release. This device releases 315.6 mcg/cm^2 /day of ethynodiol diacetate. Replacement of the ethynodiol diacetate with 2 parts of one of the following pharmaceuticals provides the indicated release rate: […]

A short description of series [2]: Partition coefficient (Kb) between hydrophilic solvent system and silicone polymer matrix. As to the method: Partition coefficient K(b) is measured by immersing a known surface area of biologically acceptable silicone polymer matrix material in a solution of the pharmaceutical in the hydrophilic solvent system with constant shaking for 24 hours and then measuring the amount of pharmaceutical remaining in the solvent system.
Ci = initial concentration of pharmaceutical
Cl = Equilibrium concentration of pharmaceutical
(§1) Table I is illustrative of the relation between Cl, Kb, release rate, and kinetics of release of 17α-ethynyl-4-estrene-3β,17β-diol 3,17-diacetate (ethynodiol diacetate) in a hydrophilic solvent system of polyethylene glycol having a molecular weight of about 400.

The nature of series [3]: Solubility of pharmaceutical (Cl) in hydrophilic solvent system at 37° C, 24 h shaking. To be noted: organic solvent or mixture. How it is done:
Solubility of a pharmaceutical (Cl) is measured by constant shaking for 24 hours an excess amount of powdered pharmaceutical in 10 ml. of a hydrophilic solvent system at 37° C. The solution is filtered and the content of the pharmaceutical is measured.
as §1

A short description of series [4]: Release of pharmaceutical from microsealed silicone delivery device (release rate and kinetics). To be noted: for Kinetics of release: Q - t = partition controlled, constant release independent of time.

As for `CC(=O)S[C@@H]1CC2=CC(=O)CC[C@]2(C)[C@H]2CC[C@@]3(C)[C@@H](CC[C@@]34CCC(=O)O4)[C@H]12` [7α-acetylthio-17α-(2-carboxyethyl)-17β-hydroxyandrost-4-en-3-one lactone], in series [1], the Release rate turned out to be 18.25 mcg/cm^2 /day.
In the case of `COC(=O)C1CC2=CC(=O)CCC2(C)C2CCC3(C)C(CCC34CCC(=O)O4)C12` (stereo not drawn) [17-hydroxy-7β-methoxycarbonyl-3-oxo-17α-pregn-4-ene-21-carboxylic acid γ-lactone], the Release rate in series [1] was 63.08 mcg/cm^2 /day.
As to `CC(=O)O[C@]1(C(C)=O)CC[C@H]2[C@@H]3CCC4=CC(=O)CC[C@@H]4[C@H]3[C@@H](C)C[C@@]21C` [17α-acetoxy-11β-methyl-19-norpregn-4-ene-3,20-dione], the Release rate in series [1] is recorded as 51.89 mcg/cm^2 /day.
On to `CC(=O)OCC(=O)[C@H]1CC[C@H]2[C@@H]3CCC4=CC(=O)CC[C@]4(C)[C@H]3CC[C@]12C` [Desoxycorticosterone acetate], for which the Release rate in series [1] came to 55.1 mcg/cm^2 /day.
A word on the solubility: it is how much of the substance goes into solution per volume. Consider `C#C[C@]1(OC(C)=O)CC[C@H]2[C@@H]3CCC4=C[C@@H](OC(C)=O)CC[C@@H]4[C@H]3CC[C@@]21C` [ethynodiol diacetate, 17α-ethynyl-4-estrene-3β,17β-diol 3,17-diacetate], for which the Release rate in series [1] is on record as 315.6 mcg/cm^2 /day. For the same compound, the Kb/Cl in series [2] (30% PEG 400) is 0.355 mL/µg; in series [2] (50% PEG 400), 0.061 mL/µg; in series [2] (60% PEG 400), 0.0078 mL/µg; in series [2] (80% PEG 400), 7.4e-05 mL/µg; in series [2] (100% PEG 400) it was 7e-07 mL/µg. Besides, the solubility at 24 h in series [3] (30% PEG 400, 37° C) turned out to be 64.6 µg/mL; in series [3] (50% PEG 400, 37° C), 156 µg/mL; in series [3] (60% PEG 400, 37° C), 437 µg/mL; in series [3] (80% PEG 400, 37° C) it was 4460 µg/mL; in series [3] (100% PEG 400, 37° C), 45600 µg/mL. Moreover, the “Release rate time dependence with alternative solvent systems” value in series [4] (1,3-butanediol, propylene glycol, PEG 4000, PEG 6000, Solketal, Medical Fluid 360 solvent systems) was “independent of time”. Also, the “Release from devices with alternative solvent systems” value in series [4] (1,3-butanediol, propylene glycol, PEG 4000, PEG 6000, Solketal, Medical Fluid 360 solvent systems, prepared as for PEG 400) is reported as 150 - 275 mcg/cm^2. Further, the “Rate of Pharmaceutical Release” value in series [4] (30% PEG 400) was found to be 297.8 gm/10^6 cm^2/day; in series [4] (50% PEG 400), 315.6 gm/10^6 cm^2/day; in series [4] (60% PEG 400), 319.4 gm/10^6 cm^2/day; in series [4] (80% PEG 400), 1203 gm/10^6 cm^2/day^1/2; in series [4] (100% PEG 400) it was 1095 gm/10^6 cm^2/day^1/2. The Kinetics of release entry in series [4] (30% PEG 400), in series [4] (50% PEG 400) and in series [4] (60% PEG 400) was “Q - t” each time. The “Release rate from silicone rubber implantates, relation to time” value in series [4] (in the absence of microsealed compartments containing a suitable hydrophilic solvent) is “porportional to the square root of time (T^1/2)”.
With `Cc1ncc([N+](=O)[O-])n1CCO` [metronidazole], the Release rate in series [1] stood at 4.23 mcg/cm^2 /day.
